Several values for one entry are separate records, joined by “and”; a condition that tells them apart may be missing. Equal values may be shown once. Entries after “also recorded” stand apart in the source; their conditions may differ. Read-outs that look alike come from different tables or passages of the source.
Experiments:
[1] = Brain penetration index (BPI) determination, brain uptake relative to liver; type: in vivo, male balb C mice; settings: for crossing of the blood brain barrier (in words): variations of the carrier; for BPI Value (%): BPI=[brain]/[liver]x100, 5 minutes after s.c. injection; for brain uptake / BPI relative to dopamine: compared with dopamine
Source text: A brain penetration index (BPI) determination was used as a criterion for measuring the capacity of a compound to cross the blood brain barrier. Shashoua, V. E., Jacob, J. N., Ridge, R., Campbell, A. and Baldessarini, R. J., J. Med. Chem. 27, 659 (1984). The BPI is a measure of the uptake of a compound by the brain relative to its uptake by the liver. The liver is chosen as a reference since it is an organ which has no barrier to diffusable molecules present in the blood. Moreover, even if subcutaneous injections are used, the injected material tends to remain largely at the site of the injection and slowly diffuse into the circulation. Therefore, the amount of material in the liver will reflect the amount available rather than the initial dose injected.
Measurements of the quantity of the drug present in the brain and liver were measured at five minutes after a subcutaneous injection and were used to calculate the BPI, the equation being: […]
For these measurements, compound 8739 was synthesized from ^14C-labeled dopamine. Thirty μCi of dopamine labeled hydrochloride was mixed with 0.1 mg of unlabeled dopamine hydrobromide and reacted with a two-fold excess of DHA anhydride. The reaction was run overnight; the product was then evaporated to dryness and dissolved in ethanol. The compound was identified as 8739 by its migration properties on thin-layer chromatography using chloroform:methanol as one solvent and dimethylformamide (DMF) as the other. The migration properties were equivalent to those of the unlabeled product.
^14C-labeled 8739 was dissolved in 15% propylene glycol in 0.1 M NaHCO3 and then injected subcutaneously (s.c.) into male balb C mice (20±2 g). After 5 minutes the animals were sacrificed by cervical fracture and the brain and liver were dissected out, weighed and homogenized in 8 and 10 ml of Brain Protein Solvent (BPS) buffer, respectively [BPS=2% sodium dodecyl sulfate in 0.03 M Tris, 6 M urea, pH 7.6, 0.01 M EDTA and 0.14 N NaCl]. Aliquots were then counted for ^14C content in 10 ml of a liquid scintillation fluid, Liquiscent (National Diagnostic Company, Somerville, N.J.) using a Beckman liquid scintillation counter. The ^14C counts were then used to calculate the total quantity of compound 8739 present in the brain per gram of tissue as compared to that in the liver. The ratio of the amount in the brain as a percent of that present in liver was determined.

[2] = Food consumption measurements; type: in vivo, balb-c mice; settings: for activity as an appetite-suppressant (in words): variations of the carrier
Procedure: The effect of compound 8739 on food consumption was determined for balb-c mice that were food deprived for 24 hr, with water freely available. The six test mice were given an i.p. injection of compound 8739 as a solution in 15% propylene glycol in 0.1 M NaHCO3, a total volume of between about 0.1-0.3 ml. The six control mice received the same volume of vehicle, but no drug. The quantity of “mouse chow” eaten during the 60-min period following the injections was determined. The results, also shown in FIG. 1, are expressed as the percent decrease in food consumption for the test group versus the control group. […] The decrease was dose dependent, with higher doses of compound 8739 causing greater decrease in food intake. The same experiment was conducted using oral administration of compound 8739.

[3] = Circling behavior in rats with unilateral nigrostriatal lesions; type: in vivo; settings: for AVERAGE ROTATION SCORES (Rotations/minutes) Contralateral / AVERAGE ROTATION SCORES (Rotations/minutes) Ipsilateral: 30-min period; for circling behavior (in words): rats with nigrostriatal lesions, i.p.
Procedure: Dopamine agonists such as apomorphine and amphetamine cause circling behavior in animals with nigrostriatal lesions.
Unilateral nigrostriatal lesions in rats were produced by administering unilateral injections of 6-OH dopamine into the nigrostriatum pathway. Seven days later, these animals were i.p. injected with the test drugs and circling behavior was recorded as rotations per minute during a 30-min period in the test apparatus, Ungerstedt U. and Arbathnott G. W., Brain Res. 24, 485-493 (1970).

[4] = animal tests, background; cited from earlier work
[5] = Test for tolerance: food consumption during long-term administration; type: in vivo, mice; settings: for tolerance: food intake
Procedure: The effect of long-term administration of compound 8739 on the pattern of food consumption of mice was compared to the long-term effects of the administration of amphetamine. Daily i.p. injections of compound 8739 (20 mg/kg) were given to test animals and daily i.p. injections of amphetamine (2 mg/kg) were given to control animals for 21 days. 24 hours after the first injection and about every five days after that, the animals were food-deprived for 24 hours with water freely available, and then were tested for food consumption for one-hour beginning at five minutes after receiving their daily injection.
FIG. 4 plots the percent decrease in food consumption versus time.

[6] = Swelling of the brain
Source text: Another favorable property of compound 8739 was unexpected. […] Chan, P. H., Fishman, R. A., SCIENCE, Vol. 20, 358-360 (1978).

[7] = Test for tolerance: open field activity during daily injections; type: in vivo, mice; settings: 20 mg/kg i.p. daily for 21 days
Procedure: The effects of daily i.p. injections of compound 8739 at a dose of 20 mg/kg on open field activity and food consumption was tested to determine whether tolerance to the drug was induced over time. The open field activity of six test mice and six control mice was monitored for five days. Then, the test mice were given i.p. injections of the drug in a vehicle and the control mice were given i.p. injections of the vehicle only. This regimen was carried out for a 21 day test period. At the end of the 21 days, the vehicle alone was given daily to both test and control mice and open field activity and food consumption was monitored for an additional six days.
FIG. 3 plots the percent decrease in open field activity of the test mice (n=6) as compared to the controls (n=6). […] Upon initation of injections, there was a 30% to 60% decrease in open field activity. […] Beginning at day 22 and daily until day 27, vehicle alone was given to both groups.

[8] = Self-stimulation test (electrodes in lateral hypothalamus); type: in vivo; settings: rats
Source text: A self-stimulation test has been used to measure the capacity of a given pharmacological agent to inhibit rats from receiving self-induced electrical stimuli via electrodes implanted in their brains (lateral hypothalamus). Stellar J. R. and Stellar E., The Neurobiology of Motivation and Reward, Springer-Verlag, New York, 1985. Animals will press levers to receive a pulse of current from the implanted electrode at a rate dependent upon the quantity of current that is being delivered as a reward. […] R.). […] A plot of the log of the frequency of the delivered pulses vs. the rate of level press for an animal gives the self-stimulation reward curve. Injections of drugs which have a neuroleptic-type or tranquilizing effect can depress the rate of self-stimulation, shifting the response to higher current deliveries. Pemozide can give a depressed rate by about 90%. […] The animal continues to press the lever at the rate equivalent to a non-injected control or one receiving the vehicle alone.

[9] = Open-field motor activity measurement; type: in vivo, balb-c mice; settings: for changes in open-field activity: administered at the same dose as compound 8739
Procedure: The effect of compound 8739 on general motor activity was determined. The general motor activity of balb-c mice was measured in a Stoelting electronic activity monitor apparatus during a 90-min period following an intraperitoneal injection of the compound as a solution in 15% propylene glycol in 0.1 M NaHCO3. A detailed description of the apparatus is reported in Stewart R. J., Campbell A., Spark G. and Balessarini R. J. Psychopharmacol. 60, 281 (1979).
The test group (six mice) received an i.p. injection of the drug in a vehicle (15% propylene glycol in 0.1 M NaHCO3, a total volume of between about […].). The six control mice received the same volume of vehicle, but no drug. The results (Shown in FIG. 1,) are expressed as the percent decrease in open field activity for the test group versus the control group. […] The response was dose dependant with higher doses of compound 8739 resulting in a greater decrease in general motor activity.
The effects of the mode of delivery of Compound 8739 (oral vs. i.p.) on the general open-field activity of mice (n=6) was assessed. […] A 40-50% decrease in activity occurred when either delivery method was employed.

[10] = in vivo
Source text: Many of the undesirable side effects of amphetamines were absent. […] Failure to induce tolerance was unexpected.

[11] = target: D-2 dopamine receptors (Homo sapiens, UniProt P14416); assay: Dopamine receptor binding assay (D-2)
Chain of D-2 dopamine receptors (P14416 whole entry): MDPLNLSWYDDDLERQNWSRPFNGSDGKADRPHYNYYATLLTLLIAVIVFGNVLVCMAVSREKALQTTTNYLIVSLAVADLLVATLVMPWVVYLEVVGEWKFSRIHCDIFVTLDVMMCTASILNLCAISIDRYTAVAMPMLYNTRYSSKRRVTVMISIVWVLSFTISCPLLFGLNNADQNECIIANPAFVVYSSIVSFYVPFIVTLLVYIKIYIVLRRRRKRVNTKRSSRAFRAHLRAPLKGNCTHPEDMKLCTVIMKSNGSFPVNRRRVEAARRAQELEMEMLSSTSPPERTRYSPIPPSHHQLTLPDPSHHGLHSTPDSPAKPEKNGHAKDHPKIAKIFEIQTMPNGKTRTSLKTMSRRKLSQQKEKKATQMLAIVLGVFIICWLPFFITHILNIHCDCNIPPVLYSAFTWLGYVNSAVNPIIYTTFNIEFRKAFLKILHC

[12] = Pattern of distribution of 14C-labeled 8739 in membranes of the central nervous system (P1/P2 fractions); type: in vivo, mice
Procedure: The fraction P1 containing nuclear and cell membrane components was sedimented for 5 min at 2,500 rpm at 0° C. The supernatant containing the crude synaptosomal fraction was next centrifuged at 13,000 rpm for 30 min to yield a pellet containing the crude synaptosomal fraction (P2). P1 and P2 were then dissolved in BPS, and the amount of label and protein in each fraction was determined.

[13] = test system: D-1 dopamine receptors; assay: Dopamine receptor binding assay (D-1)
Chain of D-1 dopamine receptors (P21728 whole entry): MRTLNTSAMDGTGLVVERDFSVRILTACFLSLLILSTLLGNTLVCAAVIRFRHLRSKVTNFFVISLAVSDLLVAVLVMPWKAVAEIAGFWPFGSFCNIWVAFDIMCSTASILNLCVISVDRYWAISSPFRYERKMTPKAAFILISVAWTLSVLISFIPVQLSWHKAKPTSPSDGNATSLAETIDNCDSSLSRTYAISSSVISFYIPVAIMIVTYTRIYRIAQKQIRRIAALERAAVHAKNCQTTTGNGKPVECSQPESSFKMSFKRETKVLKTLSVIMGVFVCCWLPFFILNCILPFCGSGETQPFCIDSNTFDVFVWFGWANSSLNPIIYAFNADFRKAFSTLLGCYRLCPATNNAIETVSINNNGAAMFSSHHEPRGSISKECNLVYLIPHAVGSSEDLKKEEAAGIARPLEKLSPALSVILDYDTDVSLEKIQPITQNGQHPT

[14] = reported in the literature; cited from earlier work
[15] = previous reports, Chan and Fishman, SCIENCE (1978); cited from earlier work
[16] = 14C-labeled, s.c. injection, mice, 5 minutes after injection
[17] = 14C-labeled 8739 s.c., mice, brain, 30 min

## CCCCCCCCCCCC(=O)NCCc1ccc(O)c(O)c1
[1]
  crossing of the blood brain barrier (in words): does not effectively cross the blood brain barrier
[2]
  activity as an appetite-suppressant (in words): completely inactive

## CCCCCCCCCCCCCCCCCCCCCC(=O)NCCc1ccc(O)c(O)c1
[1]
  crossing of the blood brain barrier (in words): does not effectively cross the blood brain barrier
[2]
  activity as an appetite-suppressant (in words): essentially inactive

## CC(N)Cc1ccccc1 (stereo not drawn) [Amphetamine]
[3]; 3.0 mg/kg i.p.
  AVERAGE ROTATION SCORES (Rotations/minutes) Contralateral: 0.4 Rotations/minutes
  AVERAGE ROTATION SCORES (Rotations/minutes) Ipsilateral: 2.5 Rotations/minutes
[3]; 5.0 mg/kg i.p.
  AVERAGE ROTATION SCORES (Rotations/minutes) Contralateral: 0.92 Rotations/minutes
  AVERAGE ROTATION SCORES (Rotations/minutes) Ipsilateral: 3.32 Rotations/minutes
[3]
  circling behavior (in words): circling rapidly to the ipsilateral lesion side
[4]
  time within which tolerance develops: 3 to 15 days
[5]; 2 mg/kg i.p. daily for 21 days
  decrease in food intake over time: virtually disappeared after 15 days
  tolerance: complete tolerance

## CN1CCc2cccc3c2[C@H]1Cc1ccc(O)c(O)c1-3 [Apomorphine]
[3]; 0.1 mg/kg i.p.
  AVERAGE ROTATION SCORES (Rotations/minutes) Contralateral: 4.8 Rotations/minutes
  AVERAGE ROTATION SCORES (Rotations/minutes) Ipsilateral: 0.1 Rotations/minutes
[3]; 0.5 mg/kg i.p.
  AVERAGE ROTATION SCORES (Rotations/minutes) Contralateral: 13.7 Rotations/minutes
  AVERAGE ROTATION SCORES (Rotations/minutes) Ipsilateral: 0 Rotations/minutes
[3]
  circling behavior (in words): rapid circling behavior to the contralateral side of the lesion

## CC/C=C\C/C=C\C/C=C\C/C=C\C/C=C\C/C=C\CCC(=O)NCCc1ccc(O)c(O)c1 [Compound 8739]
[6]
  swelling of the brain: did not induce any swelling
[7]
  tolerance: no indication of tolerance
[7]; listed as compound 8739
  tolerance: no tolerance was induced
[8]
  effect on self-stimulation parameters (reward, motor aspect, motivation): no effect on either the reward or the motor aspect; also recorded: do not result
[1]; [16]
  Brain (cpm/g): 1305 cpm/g and 1297 cpm/g
  Liver (cpm/g): 4300 cpm/g and 3931 cpm/g
[1]
  BPI Value (%): 30% and 33%
  brain uptake / BPI relative to dopamine: eight times that of dopamine
[1]; listed as compound 8739
  brain uptake / BPI relative to dopamine: over eight-fold higher
[9]; i.p. injection, mice, 90-min period
  percent decrease in open field activity, test group versus control group: 40-50%
[9]; oral delivery, mice n=6
  decrease in open-field activity: 40-50%
[9]; oral vs. i.p.
  activity when given orally compared with injection: as active when ingested as when injected; also recorded: without any apparent loss in efficacy
[10]
  effects on motor function or motivation: failed to demonstrate any diverse effects
  stereotypy: failed to induce
[11]
  binding to D-2 dopamine receptors: does not bind
[3]; 34 mg/kg i.p.
  AVERAGE ROTATION SCORES (Rotations/minutes) Contralateral: 0.05 Rotations/minutes
  AVERAGE ROTATION SCORES (Rotations/minutes) Ipsilateral: 0.08 Rotations/minutes
[3]; 51 mg/kg i.p.
  AVERAGE ROTATION SCORES (Rotations/minutes) Contralateral: 0.12 Rotations/minutes
  AVERAGE ROTATION SCORES (Rotations/minutes) Ipsilateral: 0.08 Rotations/minutes
[3]
  circling behavior (in words): failed to produce an effect; also recorded: did not evoke this behavior
[3]; listed as compound 8739
  circling behavior (in words): do not result
[12]; [17]
  P1 (Nuclear and Cell Membrane Fraction), CPM/mg Protein after 30 min of Uptake: 4.19 CPM/mg Protein and 2.7 CPM/mg Protein
  P2/P1: 2.9 and 1.9 and 2.1
[12]; average of the experiments of Table II
  factor by which uptake into P2 was greater than into P1, average: 2.3
[13]
  binding to D-1 dopamine receptors: does not bind
[5]; 20 mg/kg i.p. daily for 21 days
  tolerance: no tolerance had developed
[2]; oral administration, same experiment
  food consumption, oral administration compared with i.p.: The results were the same

## O=C[C@H](O)[C@@H](O)[C@H](O)[C@H](O)CO [D-glucose]
[14]
  BPI Value (%): 33%
  BPI index: 33

## NCCc1ccc(O)c(O)c1 [Dopamine]
[1]
  brain penetration index (BPI): about 4
  BPI Value (%): 4%
[9]
  changes in open-field activity: No significant changes

## CCC=CCC=CCC=CCC=CCC=CCC=CCCC(=O)O [carrier molecule (T), 4, 7, 10, 13, 16, 19 docosahexa-enoic acid, reference compound]
[9]
  changes in open-field activity: No significant changes
[15]
  swelling of the brain: induce swelling of the brain
